Measurements taken from BindingDB's records for doi:10.3109/14756366.2010.543420 (Shanghai Institute of Material Medica, Chinese Academy of …, 2011).
pIC50: −log10 of the molar value.

Target: Beta-secretase 1 (Homo sapiens, UniProt P56817)
Assay: Biochemical Assay
Settings: pH 4.5; 37 °C
Description: Briefly, the assay was carried out by incubation of the substrate peptide (5 μM), BACE1 enzyme (550 ng/mL) that was expressed and purified from insect expression system and varied concentrations of compounds at pH 4.5. After 1 h incubation at 37°C, stop buffer (3 M sodium acetate) was introduced into the reaction mixture to stop the reaction. Finally, the fluorescence intensity was measured on a TECAN GENios reader (Tecan) at room temperature with excitation at 420 nm and emission at 530 nm.

Sequence of Beta-secretase 1 (P56817 whole entry): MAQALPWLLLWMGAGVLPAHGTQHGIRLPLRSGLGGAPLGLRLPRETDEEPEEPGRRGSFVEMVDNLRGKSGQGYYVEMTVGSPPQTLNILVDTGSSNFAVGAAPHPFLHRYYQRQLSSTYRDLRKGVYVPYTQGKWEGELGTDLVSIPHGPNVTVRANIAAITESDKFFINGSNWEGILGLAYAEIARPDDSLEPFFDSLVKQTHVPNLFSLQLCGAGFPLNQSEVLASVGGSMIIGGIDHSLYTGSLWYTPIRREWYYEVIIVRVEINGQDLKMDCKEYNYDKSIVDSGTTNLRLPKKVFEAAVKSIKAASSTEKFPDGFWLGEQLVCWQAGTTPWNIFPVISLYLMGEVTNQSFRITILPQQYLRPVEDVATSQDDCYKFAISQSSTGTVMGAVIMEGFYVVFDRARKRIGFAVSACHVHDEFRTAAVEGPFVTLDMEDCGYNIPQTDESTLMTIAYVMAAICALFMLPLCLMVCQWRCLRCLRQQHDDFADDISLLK

SMILES | pIC50
O=C(/C=C/c1ccccc1O)c1ccccc1O | < 4.22
O=C(/C=C/c1ccccc1O)c1cc(O)ccc1O | 4.38
C=CCOc1ccccc1/C=C/C(=O)c1ccc(O)cc1O | < 4.22
O=C(/C=C/c1ccccc1O)c1cccc(O)c1O [(E)-1-(2,3-dihydroxyphenyl)-3-(2-hydroxyphenyl)-2-propen-1-one (12)] | 4.66
O=C(/C=C/c1ccccc1[N+](=O)[O-])c1ccc(O)cc1O [(E)-1-(2,4-dihydroxyphenyl)-3-(2-nitrophenyl)-2-propen-1-one (7)] | < 4.22
O=C(/C=C/c1ccccc1O)c1c(O)cccc1O [(E)-1-(2,6-dihydroxyphenyl)-3-(2-hydroxyphenyl)-2-propen-1-one (14)] | 4.81
O=C(/C=C/c1ccccc1O)c1ccc(O)c(O)c1 [(E)-1-(3,4-dihydroxyphenyl)-3-(2-hydroxyphenyl)-2-propen-1-one (15)] | 4.93
O=C(/C=C/c1ccccc1O)c1cc(O)cc(O)c1 [(E)-1-(3,5-dihydroxyphenyl)-3-(2-hydroxyphenyl)-2-propen-1-one (16)] | 4.71
O=C(/C=C/c1ccccc1O)c1cccc(O)c1 [(E)-1-(3-hydroxyphenyl)-3-(2-hydroxyphenyl)-2-propen-1-one (10)] | 4.52
O=C(/C=C/c1ccccc1O)c1ccc(O)cc1 [(E)-1-(4-hydroxyphenyl)-3-(2-hydroxyphenyl)-2-propen-1-one (11)] | 4.24
O=C(/C=C/c1ccccc1O)c1ccccc1 [Chalcone, 1] | < 4.22

The next compounds have a higher pIC50 than those just listed; values first:

pIC50 | SMILES
4.94 | O=C(/C=C/c1ccccc1Cl)c1ccc(O)cc1O
5.10 | O=C(/C=C/c1cccc(O)c1)c1ccc(O)cc1O [(E)-3,2'',4''-Trihydroxychalcone]
5.58 | COc1ccccc1/C=C/C(=O)c1ccc(O)cc1O [(E)-1-(2,4-dihydroxyphenyl)-3-(2-methoxyphenyl)-2-propen-1-one (4)]
5.61 | O=C(/C=C/c1ccccc1O)c1ccc(O)cc1O [2,2'',4''-Trihydroxychalcone]
5.63 | O=C(/C=C/c1ccc(O)c(O)c1)c1ccc(O)cc1O [(E)-3-(3,4-Dihydroxy-phenyl)-1-(2,4-dihydroxy-phenyl)-propenone]
5.68 | O=C(/C=C/c1cc(O)cc(O)c1)c1ccc(O)cc1O [(E)-1-(2,4-dihydroxyphenyl)-3-(3,5-dihydroxyphenyl)-2-propen-1-one (22)]
5.71 | O=C(/C=C/c1cc(O)ccc1O)c1ccc(O)cc1O [(E)-1-(2,4-dihydroxyphenyl)-3-(2,5-dihydroxyphenyl)-2-propen-1-one (19)]
5.77 | O=C(/C=C/c1c(O)cccc1O)c1ccc(O)cc1O [(E)-1-(2,4-dihydroxyphenyl)-3-(2,6-dihydroxyphenyl)-2-propen-1-one (20)]
6.21 | O=C(/C=C/c1ccc(O)cc1O)c1ccc(O)cc1O [2,2',4,4'-tetrahydroxychalcone]
6.57 | O=C(/C=C/c1cccc(O)c1O)c1ccc(O)cc1O [(E)-1-(2,4-dihydroxyphenyl)-3-(2,3-dihydroxyphenyl)-2-propen-1-one (17)]
